Molecules are shown by their SMILES.

IC50 data for 1 compound are collected here from ChEMBL document CHEMBL5726679, “Cycloalkane derivatives” (2017).

This assay can be described thus: Electrophysiological Assay: Current record was obtained by an automated patch clamp system “IonWorks Quattro (Molecular Devices Corporation)” in Population Patch Clamp mode. The operation was conducted in accordance with the operating procedure of the system. A Dulbecco's phosphate buffer containing calcium and magnesium (Sigma) was used as an extracellular fluid, and a low C1-buffer (100 mM K-gluconate, 40 mM KCl, 3.2 mM MgCl2, 5 mM EGTA, 5 mM Hepes, pH 7.3) was used as an intracellular fluid. A test compound was dissolved in dimethylsulfoxide (DMSO) to prepare a 30 mM stock solution, so as to produce 4-fold serial dilutions with the extracellular fluid for attaining a DMSO concentration of 0.3% in measurement.The hNav 1.7/β1/β2 cells cultured to a 70-80% confluent state in a T150 flask (Sumilon) were washed with PBS and subsequently with versene (Invitrogen Corp.), and collected by allowing to react with 0.05% trypsin (Invitrogen Corp.) at 37° C. for 3 minutes. After washing with a culture medium, the resultant cells were suspended in an extracellular fluid at a concentration of […] so as to be used for the measurement. The cell membrane was perforated by using an intracellular fluid including 100 μg/ml amphotericin B (Sigma). It counts as cell-based.

As a reminder, the IC50 is the midpoint of a concentration-inhibition curve. With `Cn1nccc1[C@H]1CCC[C@@H]1Oc1cc(F)c(S(=O)(=O)Nc2nncs2)cc1Cl` (relative stereo), the IC50 was determined as 280 nM.
